Tests used:
blackgrass [1] = test: Test A preemergence; assay type: in vivo, Alopecurus myosuroides
Excerpt: (§1) Seeds of plant species selected from barnyardgrass (Echinochloa crusgalli), blackgrass (Alopecurus myosuroides), corn (Zea mays), foxtail, giant (giant foxtail, Setaria faberi), goosegrass (Eleusine indica), kochia (Bassia scoparia), oat, wild (wild oat, Avena fatua), pigweed, palmer (palmer amaranth, palmer pigweed, Amaranthus palmeri), Pigweed, Redroot (redroot pigweed, Amaranthus retroflexus), ragweed (common ragweed, Ambrosia artemisiifolia), ryegrass, Italian (italian ryegrass, Lolium multiflorum), soybean (Glycine max), and wheat (Triticum aestivum) were planted into a blend of loam soil and sand and treated preemergence with a directed soil spray using test chemicals formulated in a non-phytotoxic solvent mixture which included a surfactant. At the same time, plants selected from these crops and weed species and also galium (catchweed bedstraw, Galium aparine) and horseweed (Erigeron canadensis) were planted in pots containing the same blend of loam soil and sand and treated with postemergence applications of test chemicals formulated in the same manner. Plants ranged in height from 2 to 10 cm and were in the one- to two-leaf stage for the postemergence treatment. Treated plants and untreated controls were maintained in a greenhouse for 10 days, after which time all treated plants were compared to untreated controls and visually evaluated for injury. Plant response ratings, summarized in Table A, are based on a 0 to 100 scale where 0 is no effect and 100 is complete control. A dash (-) response means no test result.

foxtail, giant [2] = test: Test A preemergence; assay type: in vivo, Setaria faberi
Excerpt: as §1

goosegrass [3] = test: Test A preemergence; assay type: in vivo, Eleusine indica
Excerpt: as §1

kochia [4] = test: Test A preemergence; assay type: in vivo, Bassia scoparia
Excerpt: as §1

pigweed, palmer [5] = test: Test A preemergence; assay type: in vivo, Amaranthus palmeri
Excerpt: as §1

ragweed [6] = test: Test A preemergence; assay type: in vivo, Ambrosia artemisiifolia
Excerpt: as §1

ryegrass, Italian [7] = test: Test A preemergence; assay type: in vivo, Lolium multiflorum
Excerpt: as §1

blackgrass [8] = test: Test A postemergence; assay type: in vivo, Alopecurus myosuroides; conditions: 0 to 100 scale; for Plant response rating, Blackgrass: 1000 g ai/ha, Postemergence
Excerpt: as §1

foxtail, giant [9] = test: Test A postemergence; assay type: in vivo, Setaria faberi; conditions: 0 to 100 scale; for Plant response rating, Foxtail, Giant: 1000 g ai/ha, Postemergence
Excerpt: as §1

goosegrass [10] = test: Test A postemergence; assay type: in vivo, Eleusine indica; conditions: 0 to 100 scale; for Plant response rating, Goosegrass: 1000 g ai/ha, Postemergence
Excerpt: as §1

kochia [11] = test: Test A postemergence; assay type: in vivo, Bassia scoparia; conditions: 0 to 100 scale; for Plant response rating, Kochia: 1000 g ai/ha, Postemergence
Excerpt: as §1

pigweed, palmer [12] = test: Test A postemergence; assay type: in vivo, Amaranthus palmeri; conditions: 0 to 100 scale; for Plant response rating, Pigweed, Palmer: 1000 g ai/ha, Postemergence
Excerpt: as §1

ragweed [13] = test: Test A postemergence; assay type: in vivo, Ambrosia artemisiifolia; conditions: 0 to 100 scale; for Plant response rating, Ragweed: 1000 g ai/ha, Postemergence
Excerpt: as §1

ryegrass, Italian [14] = test: Test A postemergence; assay type: in vivo, Lolium multiflorum; conditions: 0 to 100 scale; for Plant response rating, Ryegrass, Italian: 1000 g ai/ha, Postemergence
Excerpt: as §1

galium = test: Test A postemergence; assay type: in vivo, Galium aparine; conditions: 1000 g ai/ha, Postemergence; 0 to 100 scale
Excerpt: as §1

horseweed = test: Test A postemergence; assay type: in vivo, Erigeron canadensis; conditions: 0 to 100 scale; for Plant response rating, Horseweed: 1000 g ai/ha, Postemergence
Excerpt: as §1

barnyardgrass = test: Test B flooded paddy test; assay type: in vivo, Echinochloa crus-galli; conditions: 250 g ai/ha, Flood, 13 days, 0 to 100 scale (0 no effect, 100 complete control)
Protocol: (§2) Plant species in the flooded paddy test selected from barnyardgrass (Echinochloa crus-galli), ducksalad (Heteranthera limosa), rice (Oryza sativa), and sedge, umbrella (small-flower umbrella sedge, Cyperus difformis) were grown to the 2-leaf stage for testing. At time of treatment, test pots were flooded to 3 cm above the soil surface, treated by application of test compounds directly to the paddy water, and then maintained at that water depth for the duration of the test. Treated plants and controls were maintained in a greenhouse for 13 days, after which time all species were compared to controls and visually evaluated. Plant response ratings, summarized in Table B, are based on a scale of 0 to 100 where 0 is no effect and 100 is complete control. A dash (-) response means no test result.

ducksalad = test: Test B flooded paddy test; assay type: in vivo, Heteranthera limosa; conditions: 250 g ai/ha, Flood, 13 days, 0 to 100 scale (0 no effect, 100 complete control)
Protocol: as §2

rice = test: Test B flooded paddy test; assay type: in vivo, Oryza sativa; conditions: 250 g ai/ha, Flood, 13 days, 0 to 100 scale (0 no effect, 100 complete control)
Protocol: as §2

sedge, umbrella = test: Test B flooded paddy test; assay type: in vivo, Cyperus difformis; conditions: 250 g ai/ha, Flood, 13 days, 0 to 100 scale (0 no effect, 100 complete control)
Protocol: as §2

corn [15] = test: Test A preemergence; assay type: in vivo, Zea mays; conditions: 125 g ai/ha, visual injury after 10 days, 0 to 100 scale, 0 is no effect, 100 is complete control
Excerpt: as §1

oat, wild [16] = test: Test A preemergence; assay type: in vivo, Avena fatua; conditions: 125 g ai/ha, visual injury after 10 days, 0 to 100 scale, 0 is no effect, 100 is complete control
Excerpt: as §1

soybean [17] = test: Test A preemergence; assay type: in vivo, Glycine max; conditions: 125 g ai/ha, visual injury after 10 days, 0 to 100 scale, 0 is no effect, 100 is complete control
Excerpt: as §1

wheat [18] = test: Test A preemergence; assay type: in vivo, Triticum aestivum; conditions: 125 g ai/ha, visual injury after 10 days, 0 to 100 scale, 0 is no effect, 100 is complete control
Excerpt: as §1

corn [19] = test: Test A postemergence; assay type: in vivo, Zea mays; conditions: 125 g ai/ha, postemergence, 10 days; 0 to 100 scale, 0 no effect, 100 complete control
Excerpt: as §1

oat, wild [20] = test: Test A postemergence; assay type: in vivo, Avena fatua; conditions: 125 g ai/ha, postemergence, 10 days; 0 to 100 scale, 0 no effect, 100 complete control
Excerpt: as §1

soybean [21] = test: Test A postemergence; assay type: in vivo, Glycine max; conditions: 125 g ai/ha, postemergence, 10 days; 0 to 100 scale, 0 no effect, 100 complete control
Excerpt: as §1

wheat [22] = test: Test A postemergence; assay type: in vivo, Triticum aestivum; conditions: 125 g ai/ha, postemergence, 10 days; 0 to 100 scale, 0 no effect, 100 complete control
Excerpt: as §1

[23] = 1000 g ai/ha, 0 to 100 scale (0 no effect, 100 complete control), 10 days
[24] = 125 g ai/ha, visual injury after 10 days, 0 to 100 scale, 0 is no effect, 100 is complete control
[25] = 125 g ai/ha, postemergence, 10 days, 0 no effect, 100 complete control

SMILES: COc1cccc2c1OC(C)CN2C(=O)c1cccc(-n2cncn2)c1 (centres unmarked) [Compound 41]
- Plant response rating, Blackgrass (blackgrass [1]; [23]): 30
- Plant response rating, Foxtail, Giant (foxtail, giant [2]; [23]): 90
- Plant response rating, Goosegrass (goosegrass [3]; [23]): 90
- Plant response rating, Kochia (kochia [4]; [23]): 0
- Plant response rating, Pigweed, Palmer (pigweed, palmer [5]; [23]): 30
- Plant response rating, Ragweed (ragweed [6]; [23]): 0
- Plant response rating, Ryegrass, Italian (ryegrass, Italian [7]; [23]): 70
- Plant response rating, Blackgrass (blackgrass [8]): 50
- Plant response rating, Foxtail, Giant (foxtail, giant [9]): 60
- Plant response rating, Goosegrass (goosegrass [10]): 0
- Plant response rating, Kochia (kochia [11]): 20
- Plant response rating, Pigweed, Palmer (pigweed, palmer [12]): 20
- Plant response rating, Ragweed (ragweed [13]): 0
- Plant response rating, Ryegrass, Italian (ryegrass, Italian [14]): 60
- Plant response rating, Galium (galium): 70
- Plant response rating, Horseweed (horseweed): 0
- Plant response rating, Barnyardgrass (barnyardgrass): 0
- Plant response rating, Ducksalad (ducksalad): 50
- Plant response rating, Rice (rice): 0
- Plant response rating, Sedge, Umbrella (sedge, umbrella): 55

SMILES: Cc1noc(-c2cccc(C(=O)N3C[C@H](C)Oc4c(Cl)cccc43)c2)n1 [Compound 121]
- Plant response rating, Blackgrass (blackgrass [1]; [23]): 0
- Plant response rating, Foxtail, Giant (foxtail, giant [2]; [23]): 60
- Plant response rating, Goosegrass (goosegrass [3]; [23]): 0
- Plant response rating, Kochia (kochia [4]; [23]): 0
- Plant response rating, Pigweed, Palmer (pigweed, palmer [5]; [23]): 60
- Plant response rating, Ragweed (ragweed [6]; [23]): 0
- Plant response rating, Ryegrass, Italian (ryegrass, Italian [7]; [23]): 0
- Plant response rating, Blackgrass (blackgrass [8]): 0
- Plant response rating, Foxtail, Giant (foxtail, giant [9]): 20
- Plant response rating, Goosegrass (goosegrass [10]): 0
- Plant response rating, Kochia (kochia [11]): 70
- Plant response rating, Pigweed, Palmer (pigweed, palmer [12]): 50
- Plant response rating, Ragweed (ragweed [13]): 0
- Plant response rating, Ryegrass, Italian (ryegrass, Italian [14]): 0
- Plant response rating, Galium (galium): 80
- Plant response rating, Horseweed (horseweed): 0

SMILES: O=C(c1ccnc(-n2cncn2)c1)N1CC(CF)Oc2c(Cl)cccc21 (centres unmarked) [Compound 36]
- Plant response rating, Blackgrass (blackgrass [1]; [23]): 70
- Plant response rating, Foxtail, Giant (foxtail, giant [2]; [23]): 100
- Plant response rating, Goosegrass (goosegrass [3]; [23]): 90
- Plant response rating, Kochia (kochia [4]; [23]): 20
- Plant response rating, Pigweed, Palmer (pigweed, palmer [5]; [23]): 40
- Plant response rating, Ragweed (ragweed [6]; [23]): 30
- Plant response rating, Ryegrass, Italian (ryegrass, Italian [7]; [23]): 50
- Plant response rating, Blackgrass (blackgrass [8]): 60
- Plant response rating, Foxtail, Giant (foxtail, giant [9]): 90
- Plant response rating, Goosegrass (goosegrass [10]): 30
- Plant response rating, Kochia (kochia [11]): 60
- Plant response rating, Pigweed, Palmer (pigweed, palmer [12]): 60
- Plant response rating, Ragweed (ragweed [13]): 60
- Plant response rating, Ryegrass, Italian (ryegrass, Italian [14]): 40
- Plant response rating, Galium (galium): 90
- Plant response rating, Horseweed (horseweed): 0

SMILES: CCC(C)c1ncn(-c2cccc(C(=O)N3C[C@H](C)Oc4c(C)cccc43)c2)n1 (some centres unmarked) [Compound 87]
- Plant response rating, Blackgrass (blackgrass [1]; [24]): 40
- Plant response rating, Corn (corn [15]): 10
- Plant response rating, Foxtail, Giant (foxtail, giant [2]; [24]): 50
- Plant response rating, Goosegrass (goosegrass [3]; [24]): 80
- Plant response rating, Kochia (kochia [4]; [24]): 30
- Plant response rating, Oat, Wild (oat, wild [16]): 20
- Plant response rating, Pigweed, Palmer (pigweed, palmer [5]; [24]): 30
- Plant response rating, Ragweed (ragweed [6]; [24]): 0
- Plant response rating, Ryegrass, Italian (ryegrass, Italian [7]; [24]): 100
- Plant response rating, Soybean (soybean [17]): 0
- Plant response rating, Wheat (wheat [18]): 0
- Blackgrass plant response rating (blackgrass [8]; [25]): 10
- Corn plant response rating (corn [19]): 10
- Foxtail, Giant plant response rating (foxtail, giant [9]; [25]): 10
- Goosegrass plant response rating (goosegrass [10]; [25]): 30
- Kochia plant response rating (kochia [11]; [25]): 70
- Oat, Wild plant response rating (oat, wild [20]): 20
- Pigweed, Palmer plant response rating (pigweed, palmer [12]; [25]): 30
- Ragweed plant response rating (ragweed [13]; [25]): 50
- Ryegrass, Italian plant response rating (ryegrass, Italian [14]; [25]): 10
- Soybean plant response rating (soybean [21]): 40
- Wheat plant response rating (wheat [22]): 10
- Horseweed plant response rating (horseweed; [25]): 0

SMILES: Cc1csc(-c2cccc(C(=O)N3C[C@H](C)Oc4c(Cl)cccc43)c2)n1 [Compound 124]
- Plant response rating, Blackgrass (blackgrass [1]; [23]): 0
- Plant response rating, Foxtail, Giant (foxtail, giant [2]; [23]): 80
- Plant response rating, Goosegrass (goosegrass [3]; [23]): 60
- Plant response rating, Kochia (kochia [4]; [23]): 0
- Plant response rating, Pigweed, Palmer (pigweed, palmer [5]; [23]): 30
- Plant response rating, Ragweed (ragweed [6]; [23]): 0
- Plant response rating, Ryegrass, Italian (ryegrass, Italian [7]; [23]): 60
- Plant response rating, Blackgrass (blackgrass [8]): 0
- Plant response rating, Foxtail, Giant (foxtail, giant [9]): 40
- Plant response rating, Goosegrass (goosegrass [10]): 0
- Plant response rating, Kochia (kochia [11]): 30
- Plant response rating, Pigweed, Palmer (pigweed, palmer [12]): 60
- Plant response rating, Ragweed (ragweed [13]): 0
- Plant response rating, Ryegrass, Italian (ryegrass, Italian [14]): 0
- Plant response rating, Galium (galium): 30
- Plant response rating, Horseweed (horseweed): 0

SMILES: C[C@H]1CN(C(=O)c2cccc(-n3cncn3)c2)c2cc([N+](=O)[O-])ccc2O1 [Compound 49]
- Plant response rating, Blackgrass (blackgrass [1]; [23]): 0
- Plant response rating, Foxtail, Giant (foxtail, giant [2]; [23]): 20
- Plant response rating, Goosegrass (goosegrass [3]; [23]): 30
- Plant response rating, Kochia (kochia [4]; [23]): 0
- Plant response rating, Pigweed, Palmer (pigweed, palmer [5]; [23]): 0
- Plant response rating, Ragweed (ragweed [6]; [23]): 0
- Plant response rating, Ryegrass, Italian (ryegrass, Italian [7]; [23]): 30
- Plant response rating, Blackgrass (blackgrass [8]): 0
- Plant response rating, Foxtail, Giant (foxtail, giant [9]): 10
- Plant response rating, Goosegrass (goosegrass [10]): 10
- Plant response rating, Kochia (kochia [11]): 10
- Plant response rating, Pigweed, Palmer (pigweed, palmer [12]): 0
- Plant response rating, Ragweed (ragweed [13]): 30
- Plant response rating, Ryegrass, Italian (ryegrass, Italian [14]): 30
- Plant response rating, Galium (galium): 30
- Plant response rating, Horseweed (horseweed): 0
